Data taken from US4151300A, “Acetohydroxamic acids” (Laboratoire L. Lafon, priority 1976, dated 1979).
“Also recorded” adds a separate entry of the source.

Tests used:
[1] = tested on: rats; experiment: interaction with apomorphine (stereotype behaviour in rats); assay type: in vivo; conditions: for apomorphine-induced stereotypies: rats, i.p.
Method: (§1) The following text summarises a part of the results of the tests which were carried out with the products according to the invention, these products (unless otherwise stated) being administered intraperitoneally, in suspension in a gum solution (gum arabic), in a volume of 20 ml/kg in the case of mice and of 5 ml/kg in the case of rats.
Batches of six rats are each given a subcutaneous injection of apomorphine (0.5 mg/kg) 30 minutes after the administration of CRL 40,373.
Batches of 6 rats are given a subcutaneous injection of 0.5 mg/kg of apomorphine 30 minutes after the administration of CRL 40,385.

[2] = tested on: rats; experiment: interaction with amphetamine (stereotypies in rats); assay type: in vivo
How it was run: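 Test products given intraperitoneally as a gum arabic suspension (5 ml/kg in rats). Thirty minutes later, amphetamine 2 mg/kg is injected intraperitoneally; 6 animals per dose.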

[3] = tested on: mice; experiment: interaction with oxotremorine (temperature, trembling, peripheral cholinergic symptoms); assay type: in vivo
[4] = tested on: mice; experiment: traction (motor incoordination); assay type: in vivo, mice (EVIC CEBA strain); conditions: for motor incoordination / incapacity: i.p.
[5] = tested on: mice; experiment: spontaneous motility (actimeter); assay type: in vivo
How it was run: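 Compounds given i.p. as a gum arabic suspension at 20 ml/kg. Thirty minutes after dosing, mice (6 per dose, 12 controls) went into an actimeter and motility was recorded for half an hour.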

[6] = tested on: central nervous system; experiment: psychopharmacological study / behaviour; assay type: in vivo, mice
[7] = tested on: rats; experiment: interaction with methylphenidate (stereotypies); assay type: in vivo; conditions: species not given
[8] = tested on: man; experiment: clinical use in man; assay type: in vivo
[9] = tested on: catalepsy; experiment: catalepsy, alone and after a neuroleptic agent; assay type: in vivo
[10] = toxicity (isolated mice, intraperitoneal); assay type: in vivo; conditions: mouse, in vivo, ip, isolated mice
Method: as §1

[11] = tested on: mice; experiment: toxicity (isolated mice, intraperitoneal); assay type: in vivo; conditions: mice
Method: as §1

[12] = toxicity in mice in groups; conditions: mouse, in vivo, ip
Method: as §1
The LD50 for intraperitoneal administration are as follows: […]

[13] = tested on: mice; experiment: interaction with reserpine (hypothermia, ptosis); assay type: in vivo
[14] = tested on: mice; experiment: four-plate test; assay type: in vivo, mice (EVIC CEBA strain); conditions: mice, i.p.
Method: as §1
(§2) The test is carried out on batches of 10 sensitive mice (EVIC CEBA strain), 30 minutes after the administration of CRL 40,373.
(§3) Batches of 10 mice are subjected to the test thirty minutes after having received CRL 40,385.

[15] = tested on: mice; experiment: electrical shock (convulsing effects); assay type: in vivo, mice (EVIC CEBA strain); conditions: mice, i.p.
Method: as §1, §2, §3

[16] = tested on: mice; experiment: motility reduced by habituation to a cage (residual motility); assay type: in vivo; conditions: i.p.
How it was run: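 Mice habituated 18 hours in actimeters received compound intraperitoneally as a gum arabic suspension (20 ml/kg) and were returned to their cages. Motility was recorded for 30 minutes starting half an hour after dosing, with 6 animals per dose and 12 controls.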

[17] = tested on: mice; experiment: motility reduced by hypoxia treatment (motor recovery); assay type: in vivo; conditions: mice, i.p.
[18] = tested on: mice; experiment: inter-group aggressiveness (number of fights); assay type: in vivo
How it was run: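 Mice were housed either three weeks (CRL 40,373) or 18 days (CRL 40,385, groups of 3) on each side of an opaque cage partition. Fights were counted over 15 min.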

[19] = tested on: catalepsy induced by prochlorperazine; experiment: anticataleptic effect (prochlorperazine-induced catalepsy); assay type: in vivo; conditions: i.p., 256 mg/kg
Method: CRL 40,385 or amantadine are administered intraperitoneally 4 hours and 30 minutes after the injection of prochlorperazine (12.5 mg/kg administered intraperitoneally). The catalepsy is assessed every 30 minutes by the plug test (9 cm), the four plug test, the test using parallel bars and the test of crossing the paws on the same side.

[20] = tested on: rats; experiment: prolonged conditioning to take avoiding action (shuttle box); assay type: in vivo
Text: Rats placed in a shuttle box are conditioned to avoid an electric shock by changing sides. The shock is preceded by a sound and light stimulus lasting 3 seconds, which ceases when sides are changed or after 8 seconds. The sequence is repeated every 20 seconds. Animals conditioned for several tens of minutes show a percentage of avoidance which is close to 100%. They continue to be subjected to the stimulus […] and gradually they reach a state in which they are no longer able to change sides during the period of 3 seconds during which no shock is delivered.
As a first approximation, such an effect can be likened to a resumption of conditioned activity in a tired animal.
Rats placed in a "shuttle box" are conditioned to avoid an electric shock lasting 5 seconds, by changing sides. The shock is preceded, for 3 seconds, by a sound and light stimulus which ceases when the rat changes side, or at the end of 8 seconds. The sequence repeats every 20 seconds. […] They continue to be subjected to the stimulus every 20 seconds and gradually they no longer succeed in avoiding the shock.
CRL 40,438 is then administered and any resumption of the avoidance movements is followed until the effect ceases.

[21] = tested on: awake rats with spontaneous hypertension; experiment: hypotensive action in awake rats with spontaneous hypertension; assay type: in vivo; conditions: 100 mg/kg orally
Method: In the tests reported below, CRL 40,385 was administered in suspension in a solution of gum arabic, in a volume of 2 ml/kg. The hypotensive action was studied in awake rats with spontaneous hypertension. One batch of 7 rats is given 100 mg/kg of CRL 40,385 orally, followed, 2 hours later, by a fresh dose of 100 mg/kg of this product.

[22] = tested on: rats; experiment: behaviour in rats; assay type: in vivo
Method: as §1

O=C(CN1C(=O)NC(c2ccccc2)(c2ccccc2)C1=O)NO [CRL 40,382, 3-(5,5-Diphenyl-hydantoinyl)-acetohydroxamic acid]
effect of apomorphine (stereotypies) ([1]; species not given): does not counteract the effect of apomorphine
amphetamine-induced stereotypies ([2]; species not given): antagonism to the stereotypies induced by amphetamine
other effects of amphetamine (hypermotility, group toxicity) ([2]; species not given): without altering the other effects of this substance (hypermotility, group toxicity)
effects of oxotremorine ([3]; mouse, in vivo): absence of antagonism to the effects of oxotremorine
motor incoordination / incapacity [4]: absence of catalepsy and of motor incapacity
spontaneous motility ([5]; i.p.): moderate hypomotility
psychopharmacological profile / conclusion ([6]; mouse, in vivo): antipsychotic activity associated with a moderate sedative effect
effect of methylphenidate (stereotypies) [7]: does not counteract the effect of apomorphine and of methylphenidate
clinical result ([8]; tablet 250 mg, 2 to 3 tablets per day): used clinically with success as a sedative
cataleptigenic effects of a neuroleptic agent ([9]; after a preliminary dose of a neuroleptic agent): boosts the cataleptigenic effects of a preliminary dose of a neuroleptic agent
catalepsy ([9]; in vivo): does not in itself cause catalepsy; also recorded: absence of catalepsy

O=C(CC(=O)N(c1ccccc1)c1ccccc1)NO [CRL 40,385, α-(N,N-Diphenylcarbamoyl)-acetohydroxamic acid]
LD50 [10]: 1500 mg/kg
mortality ([11]; i.p., at the doses mentioned above (64-1,024 mg/kg)): no mortality whatsoever
LD50 ([12]; mice in groups): 1050 mg/kg
selectivity ratio ([12]; read-out: ratio LD50 (isolated mice)/LD50 (mice in groups)): 1.43
apomorphine-induced stereotypies ([1]; large dose, apomorphine 0.5 mg/kg s.c.): increase in the duration of the stereotypies induced by apomorphine
amphetamine-induced stereotypies ([2]; i.p., 256 mg/kg): lengthening of the duration of the amphetamine-induced stereotypies
reserpine-induced ptosis ([13]; i.p.): does not modify the intensity of the palpebral ptosis induced by reserpine
reserpine-induced hypothermia ([13]; i.p., 64, 128 and 256 mg/kg, reserpine 2.5 mg/kg i.p.): moderate antagonism towards reserpine-induced hypothermia
peripheral cholinergic symptoms of oxotremorine ([3]; mice, i.p.): does not modify the increase in salivation, lachrymation and defaecation
oxotremorine-induced trembling ([3]; mice, i.p., 128 mg/kg and above all 512 mg/kg, oxotremorine 0.5 mg/kg i.p.): a reduction in the intensity of the trembling movements produced by oxotremorine
temperature (oxotremorine-induced hypothermia) ([3]; mice, i.p., 32 and 128 mg/kg, oxotremorine 0.5 mg/kg i.p.): very partial antagonism against the hypothermia produced by oxotremorine
number of incorrect moves (four-plate test) [14]: does not produce an increase in the number of incorrect moves
motor incoordination / incapacity [4]: does not cause a major motor deficiency
convulsing effects of the electrical shock ([15]; large dose): counteracts the convulsing effects of the electrical shock
spontaneous motility ([5]; mice, i.p., 128 and 256 mg/kg): moderate increase in the spontaneous motor activity
spontaneous motility ([5]; mice, i.p., dose larger than 128 and 256 mg/kg): effect disappears
motility reduced by habituation to the cage ([16]; from 32 mg/kg upwards): causes a resumption of activity in animals habituated to their cage
minimal effective dose ([17]; Mus musculus, ip, read-out: dose at which improvement of motor recovery after hypoxia appears): 32 mg/kg
motor recovery after hypoxia/anoxia by pressure reduction ([17]; 32 mg/kg increasing up to 512 mg/kg): causes an improvement in the motor recovery of mice
inter-group aggressiveness ([18]; mice, i.p.): reduces the aggressiveness
intensity of anticataleptic effect compared with amantadine [19]: less intense than that of an 8 times smaller dose of amantadine
cataleptigenic action of prochlorperazine ([19]; prochlorperazine 12.5 mg/kg i.p.): counteracts the cataleptigenic action of prochlorperazine
resumption of avoiding actions (prolonged avoidance test) [20]: causes a resumption of avoiding actions in animals
hypotensive effect [21]: hypotensive effect
arterial pressure (minimum) ([21]; 4 hours after second administration, from 166 mm Hg): 142 mm Hg
pulse rate ([21]; after first administration, from 364): 334 beats/minute
pulse rate change ([21]; after second administration): does not vary
time to minimum arterial pressure ([21]; after second administration): 4 h
reduction of arterial pressure ([21]; after second administration, statistically significant): 13%
average reduction of arterial pressure ([21]; first administration): 10%
reduction of pulse rate ([21]; first administration, statistically significant): 8%
body temperature effect (product alone) ([6]; mouse, in vivo): does not have a hypothermic action
psychopharmacological profile / conclusion ([6]; mouse, in vivo): the most marked property is the anti-fatigue activity; also recorded: Some of its effects recall an anti-depressant type of activity, and others recall a psychostimulant type of activity; also recorded: psycho-stimulant properties
clinical result ([8]; tablet or pill 100 mg, 2 to 3 per day): used clinically with success for anti-fatigue treatment

CC(C(=O)NO)[S+]([O-])Cc1ccc(Cl)cc1 (stereo not shown) [CRL 40,466, 2-(p-Chlorobenzylsulphinyl)-propionohydroxamic acid]
mortality ([11]; i.p., 256, 512 and 1,024 mg/kg): does not cause any mortality whatsoever
apomorphine-induced stereotypies [1]: does not markedly alter the stereotypies induced in rats by apomorphine
amphetamine-induced stereotypies ([2]; rats, i.p.): does not markedly alter the stereotypies induced in rats by apomorphine and amphetamine
oxotremorine-induced trembling ([3]; mice, i.p.): reduces the trembling movements due to oxotremorine
temperature (oxotremorine-induced hypothermia) ([3]; mice, i.p.): does not oppose hypothermia induced by oxotremorine
temperature (oxotremorine-induced hypothermia) ([3]; mice, i.p., high doses): aggravates the hypothermia
number of incorrect moves (four-plate test) [14]: moderate (but significant) increase in the number of incorrect moves
motor incapacity ([4]; high dose): motor incapacity
convulsing effects of the electric shock [15]: antagonism to convulsions caused by electric shock
spontaneous motility ([5]; mice, high dose): reduction in spontaneous motility
spontaneous motility ([5]; mice, i.p., 8 mg/kg): appears to exhibit a stimulant effect on the motility
spontaneous motility ([5]; mice, i.p., 512 mg/kg): depresses spontaneous motility in mice
motility reduced by habituation to the cage [16]: moderate increase in the motility reduced by habituation
motor recovery after hypoxia/anoxia by pressure reduction [17]: moderate increase in the motility reduced by habituation or by the effects of hypoxia
aggressiveness ([18]; low dose): increase in aggressiveness
aggressiveness ([18]; mice, i.p., large/high dose): reduction of aggressiveness
reactivity ([6]; mice, high dose): hypo-reactivity
excitation ([6]; mice, low dose): excitation, with hyper-reactivity
body temperature effect (product alone) ([6]; mouse, in vivo): hypothermia
psychopharmacological profile / conclusion ([6]; mouse, in vivo): effects of the sedative type and effects of the psychostimulant type; also recorded: sedation in mice
ptosis (product alone) ([6]; mouse, in vivo): ptosis
excitation [22]: excitation, with hyper-reactivity
